Results on nine molecules are retold here after patent US20160068466A1, “ESTER DERIVATIVES OF ANDROGEN RECEPTOR MODULATORS AND METHODS FOR THEIR USE” (The University of British Columbia, priority 2013, published 2016).

Read-outs that look alike come from different tables or passages of the source.

In one assay the target is T1, androgen receptor (Homo sapiens, UniProt P10275, T878A).
T1 construct: LNCaP cells express endogenous AR; endogenous in cells; host or cells: LNCaP
T1 sequence (P10275 1-920 T878A): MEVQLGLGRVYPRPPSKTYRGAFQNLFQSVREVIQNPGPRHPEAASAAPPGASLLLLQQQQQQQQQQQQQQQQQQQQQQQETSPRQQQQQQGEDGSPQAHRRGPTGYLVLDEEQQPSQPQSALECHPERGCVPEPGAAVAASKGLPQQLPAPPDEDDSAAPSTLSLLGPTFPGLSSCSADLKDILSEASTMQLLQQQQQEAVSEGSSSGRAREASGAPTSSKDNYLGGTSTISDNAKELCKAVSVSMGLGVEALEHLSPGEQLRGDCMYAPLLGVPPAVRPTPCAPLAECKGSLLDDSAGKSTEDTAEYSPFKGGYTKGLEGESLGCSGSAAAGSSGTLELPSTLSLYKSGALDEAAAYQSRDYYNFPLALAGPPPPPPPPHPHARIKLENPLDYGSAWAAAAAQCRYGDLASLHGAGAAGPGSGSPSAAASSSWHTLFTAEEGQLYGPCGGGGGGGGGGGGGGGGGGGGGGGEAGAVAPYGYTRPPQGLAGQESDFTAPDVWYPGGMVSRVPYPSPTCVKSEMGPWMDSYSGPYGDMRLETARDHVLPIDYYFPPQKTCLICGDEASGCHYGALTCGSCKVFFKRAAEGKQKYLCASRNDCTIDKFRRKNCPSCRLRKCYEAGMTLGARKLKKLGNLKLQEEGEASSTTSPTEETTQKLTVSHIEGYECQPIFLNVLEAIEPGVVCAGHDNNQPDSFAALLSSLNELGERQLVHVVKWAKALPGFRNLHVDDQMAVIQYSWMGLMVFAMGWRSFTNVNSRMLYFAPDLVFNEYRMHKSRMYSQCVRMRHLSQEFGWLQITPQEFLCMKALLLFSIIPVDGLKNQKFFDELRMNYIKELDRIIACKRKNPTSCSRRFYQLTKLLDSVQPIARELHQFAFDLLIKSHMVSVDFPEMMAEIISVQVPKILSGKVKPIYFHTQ
Nature of the assay: PSA(6.1 kb)-luciferase reporter assay in LNCaP cells induced with R1881. Type of assay: cell-based. The text has this: LNCaP cells were employed for experiments because they are well-differentiated human prostate cancer cells in which ligand-dependent and ligand-independent activation of AR by FSK has been characterized (Nazareth et al 1996 J. Biol. Chem. 271, 19900-19907; and Sadar 1999 J Biol. Chem. 274, 7777-7783). LNCaP cells express endogenous AR and secrete prostate-specific antigen (PSA) (Horoszewicz et al 1983 Cancer Res. 43, 1809-1818). LNCaP cells can be grown either as monolayers in cell culture or as tumors in the well-characterized xenograft model that progresses to castration-resistant prostate cancer (CRPC) in castrated hosts (Sato et al 1996 J. Steroid Biochem. Mol. Biol. 58, 139-146; Gleave et al 1991 Cancer Res. 51, 3753-3761; Sato et al 1997 Cancer Res. 57, 1584-1589; and Sadar et al 2002 Mol. Cancer Ther. 1(8), 629-637). R1881 (a synthetic androgen) is employed since it is stable and avoids problems associated with the labile physiological ligand dihydrotestosterone (DHT).
One well characterized ARE-driven reporter gene construct that has been used extensively is the PSA (6.1 kb) enhance/promoter which contains several AREs and is highly inducible by androgens as well as by FSK (Ueda et al 2002 A J. Biol. Chem. 277, 7076-7085).
LNCaP (2.4×10^4 cell/well) cells were seeded on 24-well plates overnight before transfection with PSA(6.1 kb)-luciferase plasmid (0.25 ug/well) in serum-free, red phenol-free media. The next day, cells were pre-treated with compounds of the disclosure for 1 hour before the addition of synthetic androgen, R1881 (1 nM) to trans activate the androgen receptor. After 48 h of incubation with R1881, the cells were harvested, and relative luciferase activity was determined as a read-out for androgen receptor transcriptional activity. Test compounds were added to the cells at various concentrations and activity for each treatment was normalized to the predicted maximal activity induction (in the absence of test compounds, vehicle only). Transfection experiments were performed using triplicate wells.
Further experiments, as outlined in Example 22, were conducted with LNCaP cells transfected with PSA-luciferase plasmid to evaluate the dose response of particular compounds of the disclosure.
Background: A reporter such as luciferase makes a cellular process visible.

The next assay deals with LNCaP xenografts. Description: LNCaP xenograft tumor volume in castrated NOD-SCID mice. In kind it is in vivo. The protocol:
Male NOD-SCID mice bearing subcutaneous tumors were castrated when tumor volume was approximately 100 mm3.
Tumors were measured using caliphers and the volume calculated by application of the formula (L×W×H)*0.5236.
Animals bearing LNCaP xenografts were dosed daily by oral gavage with 55.23 mg/kg body weight of Compound 7c or CMC/10% DMSO/Tween-20 vehicle control.
Tumors were measured using caliphers and the volume calculated by application of the formula (L×W×H)*0.5236Male

The subject of the next assay is LNCaP cells. Description: AlamarBlue proliferation assay, androgen-dependent proliferation of LNCaP cells in response to R1881. In kind it is cell-based, human. The following applies: 0.1 nM R1881, 3 days, FIG. 10. The protocol:
Protocol: Proliferation assays using AlamarBlue, wherein the % androgen-dependent proliferation represents proliferation of LNCaP cells in response to R1881 compared to basal levels.
PC3 and LNCaP cells were plated in 96-well plates in respective media plus 0.5% FBS. […] Cell viability was measured using alamarBlue Cell Viability Assay (Invitrogen) following the manufacturer's protocol.
On the technique in general: The colour change of resazurin is a common sign of viable cells or microbes.

Setting [1] is: PSA-luc, mean, read-out: PSA-luc IC50s MEAN.
Setting [2] is: LNCaP cells transfected with PSA-luciferase plasmid, R1881 1 nM, 48 h, data of FIG. 9, read-out: IC50 (μM + Standard Deviation).

`CC(C)(c1ccc(OC[C@H](O)CCl)cc1)c1ccc(OC[C@H](O)COC(=O)CN)cc1` [(S)-3-(4-(2-(4-((S)-3-chloro-2-hydroxypropoxy)phenyl)propan-2-yl)phenoxy)-2-hydroxypropyl 2-aminoacetate]: the IC50 at androgen receptor (setting [1]) is 12.1 µM.
Take `CC(=O)OC[C@@H](O)COc1ccc(C(C)(C)c2ccc(OC[C@H](O)CCl)cc2)cc1` [Compound 1c]: the IC50 on androgen receptor (setting [2]) is 25.6 µM.
For the molecule `CC(=O)O[C@H](CCl)COc1ccc(C(C)(C)c2ccc(OC[C@H](O)CO)cc2)cc1` [Compound 3c], the IC50 on androgen receptor (setting [2]) was found to be 11.6 µM.
Consider `CC(=O)OC[C@H](COc1ccc(C(C)(C)c2ccc(OC[C@H](O)CCl)cc2)cc1)OC(C)=O` [Compound 4c, (S)-3-(4-(2-(4-((S)-3-chloro-2-hydroxypropoxy)phenyl)propan-2-yl)phenoxy)propane-1,2-diyl diacetate], for which the IC50 at androgen receptor (setting [1]) amounted to 15.3 µM.
Regarding `CC(=O)OC[C@H](COc1ccc(C(C)(C)c2ccc(OC[C@@H](CCl)OC(C)=O)cc2)cc1)OC(C)=O` [Compound 7c, (S)-3-(4-(2-(4-((S)-2-acetoxy-3-chloropropoxy)phenyl)propan-2-yl)phenoxy)propane-1,2-diyl diacetate], the tumor volume result is given as “effective at reducing tumor volume” in the assay with LNCaP xenografts (Example 25, daily oral gavage, 10% DMSO/corn oil vehicle control, FIG. 11) and “effective at reducing tumor volume” in the assay with LNCaP xenografts (Example 26, 55.23 mg/kg body weight daily by oral gavage, CMC/10% DMSO/Tween-20 vehicle control, FIG. 12). The “tumor volume reduction compared with compound A” value with LNCaP xenografts (Example 25, daily oral gavage, FIG. 11) was “more effective than its active compound”. The “potency in proliferation assay relative to active compound (compound A)” value in the assay with LNCaP cells is “twice as potent”. On androgen receptor (setting [2]), the IC50 amounted to 8.81 µM.
Consider `COC[C@H](O)COc1ccc(C(C)(C)c2ccc(OC[C@H](O)CCl)cc2)cc1` [Compound B, reference compound], for which the IC50 on androgen receptor (setting [2]) amounted to 9.8 µM.
On to `CC(=O)OC[C@H](COc1ccc(C(C)(C)c2ccc(OC[C@H]3CO3)cc2)cc1)OC(C)=O` [Example 11, (S)-3-(4-(2-(4-((R)-oxiran-2-ylmethoxy)phenyl)propan-2-yl)phenoxy)propane-1,2-diyl diacetate], for which the IC50 on androgen receptor (setting [1]) came out at 26 µM.
Same read-out and setting: the result for `CC(C)(c1ccc(OC[C@@H](CCl)OC(=O)CCC(=O)O)cc1)c1ccc(OC[C@@H](COC(=O)CCC(=O)O)OC(=O)CCC(=O)O)cc1` [Example 13, (S)-3-(4-(2-(4-((S)-3-chloro-2-hydroxypropoxy)phenyl)propan-2-yl)phenoxy)propane-1,2-diol trisuccinate] reads 60.2 µM.
For the molecule `COC[C@@H](COc1ccc(C(C)(C)c2ccc(OC[C@@H](CCl)OC(C)=O)cc2)cc1)OC(C)=O` [Example 21, (S)-1-(4-(2-(4-((S)-2-acetoxy-3-chloropropoxy)phenyl)propan-2-yl)phenoxy)-3-methoxypropan-2-yl acetate], the IC50 on androgen receptor (setting [2]) stood at 8.07 µM.
